Calls of active or inactive are those of the source. No cut-off for these calls is given here.

We go through 7 molecules from ChEMBL document CHEMBL4308897, “Antileishmanial activity and cytotoxicity of ent-beyerene diterpenoids” (Bioorg Med Chem, 2019).

The nature of series [1]: Cytotoxicity against human U937 cells after 72 hrs by MTT assay. The format is cell-based, U-937. The conditions noted are these: read-out: LC50. Background: Tetrazolium dyes change colour on reduction, which living cells bring about.
Series [2] concerns Leishmania braziliensis. Kind of series: Antileishmanial activity against Leishmania (Viannia) braziliensis HMOM/COL/88/UA301-EGFP intracellular amastigotes infected in human U937 cells after 72 hrs by flow cytometric analysis. The format is functional, organism-based. The conditions noted are these: HMOM/COL/88/UA301, U-937, 72 h. A general note: A flow cytometer gives signals particle by particle.

Series [3] in a line: Selectivity index, ratio of LC50 for human U937 cells to EC50 for Leishmania (Viannia) braziliensis HMOM/COL/88/UA301-EGFP intracellular amastigotes infected in human U937 cells. The format is toxicity, cell-based. The conditions noted are these: read-out: Selectivity Index.
Series [4] relates to Leishmania braziliensis. As to the kind of experiment: Antileishmanial activity against Leishmania (Viannia) braziliensis HMOM/COL/88/UA301-EGFP infected in golden hamster assessed as cure rate at 200 ug administered intralesionally twice per week for 4 weeks measured 3 months post last dose relative to control. The format is functional, organism-based.
In series [5] the test system is Leishmania braziliensis. As to the kind of experiment: Antileishmanial activity against Leishmania (Viannia) braziliensis HMOM/COL/88/UA301-EGFP infected in golden hamster assessed as clinical improvement at 200 ug administered intralesionally twice per week for 4 weeks measured 3 months post last dose relative to control. It counts as functional, organism-based.

Series [6] concerns Leishmania braziliensis. As to the kind of experiment: Antileishmanial activity against Leishmania (Viannia) braziliensis HMOM/COL/88/UA301-EGFP infected in golden hamster assessed as relapse at 200 ug administered intralesionally twice per week for 4 weeks measured 3 months post last dose relative to control. The format is functional, organism-based.
The test system of series [7] is Leishmania braziliensis. As to the kind of experiment: Antileishmanial activity against Leishmania (Viannia) braziliensis HMOM/COL/88/UA301-EGFP infected in golden hamster assessed as clinical failure at 200 ug administered intralesionally twice per week for 4 weeks measured 3 months post last dose relative to control. The format is functional, organism-based.
The subject of series [8] is Syrian golden hamster. Kind of series: Antiinflammatory activity in golden hamster infected with Leishmania (Viannia) braziliensis HMOM/COL/88/UA301-EGFP assessed as migration of lymphocytes in skin at 200 ug administered intralesionally twice per week for 4 weeks measured 3 months post last dose by histopathological analysis. It counts as functional, organism-based. Conditions: Mesocricetus auratus.

In series [9] the test system is Syrian golden hamster. As to the kind of experiment: Antiinflammatory activity in golden hamster infected with Leishmania (Viannia) braziliensis HMOM/COL/88/UA301-EGFP assessed as migration of plasmocytes in skin at 200 ug administered intralesionally twice per week for 4 weeks measured 3 months post last dose by histopathological analysis. It counts as functional, organism-based. Conditions: Mesocricetus auratus.

For series [10], the system named is Syrian golden hamster. As to the kind of experiment: Antiinflammatory activity in golden hamster infected with Leishmania (Viannia) braziliensis HMOM/COL/88/UA301-EGFP assessed as migration of macrophages in skin at 200 ug administered intralesionally twice per week for 4 weeks measured 3 months post last dose by histopathological analysis. The format is functional, organism-based. The conditions noted are these: Mesocricetus auratus.

The test system of series [11] is Syrian golden hamster. As to the kind of experiment: Antiinflammatory activity in golden hamster infected with Leishmania (Viannia) braziliensis HMOM/COL/88/UA301-EGFP assessed as re-epithelialization in skin at 200 ug administered intralesionally twice per week for 4 weeks measured 3 months post last dose by histopathological analysis. The format is functional, organism-based. The conditions noted are these: Mesocricetus auratus.

In general, EC50 refers to the concentration needed to bring the measured effect to its halfway point. Lower therefore signals greater potency. For the molecule `CCOC(=O)[C@]1(C)CCC[C@@]2(C)[C@@H]3CC[C@@]4(C)C[C@]3(CC[C@@H]21)CC4=O`, in series [1], the CC50 at 72 h turned out to be 51.9 µM. This molecule showed an EC50 in series [2] of 36.3 µM. The selectivity ratio in series [3] amounted to 0.86.
Turning to MEGLUMINE ANTIMONATE, the Activity came out at 66.7% in [4], 16.7% in series [5], 16.7% in [6] and 0% in series [7]. The result in [8], in series [9], in [10] and in series [11] was Active.
As to `CCOC(=O)[C@]1(C)CCC[C@@]2(C)[C@@H]3CC[C@@]4(C)C[C@]3(CC[C@@H]21)C/C4=N/NS(=O)(=O)c1ccc(C)cc1`, in [1], the CC50 at 72 h turned out to be 8.8 µM. For the same molecule, the concentration for a half-maximal effect (EC50) in [2] worked out at 3 µM. For the same molecule, the selectivity ratio in series [3] came to 3.5.
The corresponding values for `CCOC(=O)[C@]1(C)CCC[C@@]2(C)[C@@H]3CC[C@@]4(C)C[C@]3(CC[C@@H]21)C/C4=N/O` are 15.7 µM, 8.8 µM and 1.8.
As for `CCOC(=O)[C@]1(C)CCC[C@@]2(C)[C@@H]3CC=C(C)C[C@@]3(CC#N)CC[C@@H]21`, the CC50 at 72 h in [1] amounted to 9.1 µM. In series [2], this molecule came in with a half-maximal effective concentration (EC50) of 14.1 µM. Besides, the selectivity ratio in series [3] was 0.6.
Take `Cc1ccc(S(=O)(=O)N/N=C2/C[C@]34CC[C@H]5[C@@](C)(CCC[C@@]5(C)C(=O)O)[C@@H]3CC[C@@]2(C)C4)cc1`: in [1], the CC50 at 72 h is 5.9 µM. Besides, in series [2], a half-maximal effect (EC50) was put at 2.3 µM. In addition, in series [3], the selectivity ratio stood at 3.1.
`CCOC(=O)[C@]1(C)CCC[C@@]2(C)[C@@H]3CC[C@@]4(C)C[C@]3(CC[C@@H]21)C[C@H]4O`: the CC50 at 72 h in [1] was 28.8 µM. This molecule had an EC50 in [2] of 13.6 µM. In addition, the selectivity ratio in series [3] came to 1.4.
